According to PMC8491194, “A cyclic peptide retards the proliferation of DU145 prostate cancer cells in vitro and in vivo through inhibition of FGFR2” (MedComm, 2020):
Where a SMILES comes first, the peptide text is derived from it. Bridges are numbered along the chain shown (N, C = ends). Where no end group is shown, it is not given here. [ ]: non-standard residue; d: D form.

What was measured:
[1] = test system: heart, liver, spleen, lung, and kidney; experiment: H&E staining of major organs of tumor-bearing mice; format: in vivo, BALB/C‐nu/nu mice; conditions: tumor-bearing mice at functional doses, paraffin sections
Protocol: (§1) DU145 cells with a density above 90% were harvested in to a microtube. The cell concentration was adjusted to 1 × 10^7 cells/mL, and two million cells were injected under the right arm of each individual. After injection, the tumors grew to a size of approximately 200 mm^3 in the following days. […] Animal models were randomly selected and assigned to each experimental group, and compounds were administered by intratumoral injections. The dosing regimen was one injection a day for 7 days. The length and width of the tumor were measured using a Vernier caliper once a day, and the animal's weight was recorded once a day from the beginning of the experiment. On Day 14, blood samples of each animal were collected, the tumor tissue was separated and weighed, and internal organs were collected. The tumor volume was calculated according to the formula V = ab ^2/2 (a refers to the length of the tumor, and b refers to the width).
Briefly, the connective tissue around the parenchyma organ was removed and washed three times in PBS, and the tissues were fixed with 10% formalin solution for 24 hours, followed by gradient ethanol dehydration. The tissues were then subjected to paraffin embedding. Sections of 4 μm thickness were prepared for H&E staining. H&E staining was performed according to the standard protocol of the H&E staining kit (Solarbio, China).

[2] = Peptide concentration in peripheral blood after administration; format: in vivo, BALB/C‐nu/nu mice; conditions: 25 mg/kg, serum; for time before blood concentration dropped below half C max: mice, biotin quantitation kit, sampled 0.5-24 hours postadministration
Protocol: as §1, with “On Day 14, blood samples of each animal were collected, the tumor tissue was separated and weighed, and internal organs were collected.” left out
Serum in the blood was separated and used to perform biotin quantitation with a Biotin Quantitation assay kit (MyBioSource, San Diego, CA) to calculate the concentration of the biotin‐peptide complex in the blood sample. Serum samples from the blank group were used as background controls, and serum of the 25 mg/kg‐dose P5 group and 25 mg/kg‐dose DcP5 group was examined in this step.

[3] = test system: phosphorylated FGFR2, AKT, and ERK1/2; experiment: Western blot of phosphorylated FGFR2, AKT and ERK1/2 in xenograft tumors; format: in vivo, BALB/C‐nu/nu mice; conditions: tumor tissue of xenograft mice
Protocol: DU145 cells with a density above 90% were harvested in to a microtube. The cell concentration was adjusted to 1 × 10^7 cells/mL, and two million cells were injected under the right arm of each individual. […] Animal models were randomly selected and assigned to each experimental group, and compounds were administered by intratumoral injections. The dosing regimen was one injection a day for 7 days. The length and width of the tumor were measured using a Vernier caliper once a day, and the animal's weight was recorded once a day from the beginning of the experiment. On Day 14, blood samples of each animal were collected, the tumor tissue was separated and weighed, and internal organs were collected. The tumor volume was calculated according to the formula V = ab ^2/2 (a refers to the length of the tumor, and b refers to the width).
Cell lysates were subjected to SDS‐PAGE for Western blotting. Briefly, cells were lysed with RIPA buffer (Thermo, Waltham, MA), followed by heat denaturation in 1X Laemmli SDS buffer (Sigma, St Louis, MO). For SDS‐PAGE 100 μg proteins were loaded to each lane. After electrophoresis, the proteins were transferred onto PVDF membranes, followed by blocking in 5% nonfat milk. […] The bands were quantified using Image Lab Software 6.0 (Bio‐Rad, Hercules, CA).

DU145 xenograft = DU145 xenograft in nude mice, tumor growth; format: in vivo, BALB/C‐nu/nu mice; conditions: intratumoral injection once a day for 7 days, evaluated to Day 14, P5 10-25 mg/kg, DcP5 10, 25, 50 mg/kg, P5-3 50 mg/kg
Protocol: The specific pathogen‐free (SPF) level experimental male nude mice were purchased from the Animal Center of Guangdong Province (China), and the strain was BALB/C‐nu/nu. The animal experiments were conducted by the Animal Experimental Center of Jinan University (China) according to the National Institutes of Health guide for the care and use of Laboratory animals. The treatment and experimental procedure met the requirements of animal ethics.
as §1

DU145 cells [4] = experiment: CCK-8 cell proliferation, DU145 cells; format: cell-based, human; conditions: DU145, concentrations of 6.25 and 12.5 μM
Protocol: (§2) The cell lines, including DU145 (human prostate cancer cells, American Type Culture Collection/ATCC, Manassas, VA), LNCaP (human prostate cancer cells, ATCC, Manassas, VA), KYSE30 (human esophageal squamous cell carcinoma cells, ATCC, Manassas, VA), KYSE510 (human esophageal squamous cell carcinoma cells, ATCC, US), L02 (human normal liver cells, ATCC, Manassas, VA), and MCF‐7 (human breast cancer cells, ATCC, Manassas, VA) were cultured in DMEM medium (Thermo Gibco, Waltham, MA) with 10% FBS (Biological Industries, Israel). The SGC7901 (human gastric cancer cells, ATCC, Manassas, VA) cells were maintained in RPMI‐1640 medium (Thermo Gibco, Waltham, MA) with 10% FBS. All these cell lines were cultured at 37°C in a 5% CO2 cell incubator (Bio‐Rad, Hercules, CA). Subculture of these cell lines was employed with 0.25% trypsin (Thermo Gibco, Waltham, MA).
The cells were seeded at a density of 30 000 cells/mL based on cell counting performed with a cell counting plate. […]
(§3) Cell proliferation was evaluated using the Enhanced CCK‐8 cell proliferation and toxicity test kit (Meilunbio, China) according to the product specifications. Finally, the OD450 nm and OD630 nm were measured with an iMark dual wavelength microplate reader (Bio‐Rad, Hercules, CA), and the ratio of OD450 nm/OD630 nm was calculated.

DU145 cells [5] = experiment: Colony formation of DU145 cells; format: cell-based, human; conditions: 12.5 μM
Protocol: Cell colony formation was also employed to evaluate the effect of P5 and DcP5. The DU145 cells were seeded in six‐well plates (500 cells/well). The cultural supernatant was removed at 48 hours posttreatment, followed by washing with PBS three times. The cells were then fixed with 4% paraformaldehyde and air dried. Crystal violet staining was performed using solution (Sangon, China) as per the instructions. Then, photographs were taken, and spot amounts were calculated with an Invitrogen Countess II FL (Thermo, Waltham, MA) cell counter.
(§4) In our study, peptide cyclization was achieved by adding two cysteine residues to each end of the peptides. Cysteine is a chiral molecule. The natural cysteine is L‐cysteine, and a report has shown that introduction of unnatural D‐cysteine can theoretically improve the stability of the cyclic peptide in vivo.[41], [42], [43] Therefore, we designed and synthesized two cyclic peptides, DcP5 and LcP5, with two L‐cysteines or D‐cysteines at each end, respectively. The amino acid polymers of DcP5 and LcP5 were synthesized via the same organic chemistry as the P5 peptide. The cysteine‐ending peptides were spontaneously cyclized at 37°C in PBS (pH = 9.0) for 12 hours. […] Then, the binding affinity of these two cyclic peptides to FGFR2 was measured by ITC as described in Section 2.1. […]

[6] = Body weight of tumor-bearing mice; format: in vivo, BALB/C‐nu/nu mice; conditions: various dosing regimens; data not shown
Protocol: as §1

[7] = test system: FGFR2 knockdown DU145 cells; experiment: Growth inhibition in FGFR2-knockdown (shFGFR2) DU145 cells; format: cell-based, human; conditions: DU145, shFGFR2 knockdown vs wild type
Protocol: The cells were seeded at a density of 30 000 cells/mL based on cell counting performed with a cell counting plate. Different concentrations of the P5 peptide were added to the cultural medium, followed by a 24‐hour incubation at 37°C in a 5% CO2 cell incubator (Bio‐Rad, Hercules, CA). Five replicates were set up for each experimental group.
as §3
The shFGFR2 plasmid was purchased from Sigma (St Louis, MO) (TRCN0000218493). One microliter Lip3000 (Lipofectamine 3000, Invitrogen, Carlsbad, CA) was mixed with 100 ng plasmid in nonserum DMEM medium before being added into the cultural DU145 cells. The cells were incubated with the Lip3000/plasmid solution for 6 hours, followed by DMEM with 10% FBS incubation. The transfected cells were then ready for growth‐inhibition experiment and RNA extraction for qPCR.

FGFR2 on DU145 cells = experiment: Immunofluorescence assay (IFA) of biotin-labeled peptide binding to DU145 cells; format: cell-based, human
Protocol: The binding affinity was analyzed under fluorescent microscope. GFP‐labeled DU145 cells were cultured to a density of 50%, followed by 4% paraformaldehyde fixation. After treated with 0.2% Triton X‐100, the cells were then blocked with 5% BSA. The incubation was performed by different treatments and SA‐PE‐TRITC was used as a fluorescent indicator; briefly, the FGFR2 mAb group (Abcam [Cambridge, MA] followed by PE‐TRITC‐labeled goat antimouse IgG for color development), and the blank group (equal amounts of PBS followed by SA‐PE‐TRITC as a fluorescent indicator were added). After adding the biotin‐labeled P5 peptide, biotin‐labeled P5‐3 peptide or anti‐FGFR2 mAb, the cells were incubated at 4°C overnight. After washing five times with PBST, the TRITC‐labeled streptavidin regent or TRITC‐labeled secondary antibody was introduced for another incubation at 25°C for 30 minutes in dark. Finally, the DAPI staining reagent was employed to stain the nucleus for 10 minutes in dark, followed by washing five times with PBS. After the addition of ProLong Antifade mounting medium (Thermo, Waltham, MA), a confocal microscope (OLS4100, Japan) was used for observation.

FGFR2 = FGFR2 (Homo sapiens, UniProt P21802); experiment: Isothermal titration calorimetry (ITC) binding to FGFR2 protein; conditions: in Figure 4A, read-out: KD, P5-FGFR2
Protocol: A set of peptide candidates was designed with manual inspection, synthesized with a chemical dehydration reaction, and verified with MS. To screen the candidates, an in vitro binding assay using isothermal titration calorimetry (ITC) was performed against the FGFR2 protein using AutoiTC200 (MicroCal, MA). After the positive candidate was confirmed by ITC, three analog peptides with different mutant amino acids were designed to verify the active site previously determined. The binding affinity of each mutant analog to FGFR2 was measured using ITC and compared with the positive candidate.
as §4

L02 normal liver cells = experiment: Toxicity toward L02 normal liver cells; format: cell-based, human; conditions: in vitro
Protocol: as §2, §3

FGFR2, sequence (P21802 22-821): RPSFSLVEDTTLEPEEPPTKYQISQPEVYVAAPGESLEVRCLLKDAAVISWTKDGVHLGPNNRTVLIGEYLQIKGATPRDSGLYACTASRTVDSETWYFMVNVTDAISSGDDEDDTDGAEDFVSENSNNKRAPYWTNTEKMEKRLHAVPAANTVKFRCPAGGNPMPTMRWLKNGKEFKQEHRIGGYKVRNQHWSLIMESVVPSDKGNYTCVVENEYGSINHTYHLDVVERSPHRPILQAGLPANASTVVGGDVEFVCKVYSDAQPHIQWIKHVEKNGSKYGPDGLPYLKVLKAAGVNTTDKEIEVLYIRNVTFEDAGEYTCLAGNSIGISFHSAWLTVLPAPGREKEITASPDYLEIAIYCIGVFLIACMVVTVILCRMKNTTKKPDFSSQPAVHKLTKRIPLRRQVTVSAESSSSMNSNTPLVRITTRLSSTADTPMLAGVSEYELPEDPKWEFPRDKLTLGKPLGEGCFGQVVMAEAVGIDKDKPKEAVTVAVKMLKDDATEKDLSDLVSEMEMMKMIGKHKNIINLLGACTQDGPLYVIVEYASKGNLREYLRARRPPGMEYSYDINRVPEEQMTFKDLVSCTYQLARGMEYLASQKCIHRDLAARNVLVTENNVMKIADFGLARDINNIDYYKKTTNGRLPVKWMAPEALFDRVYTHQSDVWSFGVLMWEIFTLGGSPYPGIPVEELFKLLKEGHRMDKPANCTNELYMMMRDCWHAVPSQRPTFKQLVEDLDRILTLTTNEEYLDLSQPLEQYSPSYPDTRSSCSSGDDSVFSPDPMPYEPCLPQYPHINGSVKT

Compound: CC(C)C[C@@H]1NC(=O)[C@H](N)CSSC[C@H](C(=O)O)NC(=O)[C@H](CCCNC(=N)N)NC(=O)[C@H](CCC(=O)O)NC(=O)[C@H](CCC(=O)O)NC(=O)[C@H](C)NC(=O)[C@H](CCC(N)=O)NC(=O)[C@H](CC(C)C)NC(=O)[C@H](CCC(N)=O)NC1=O [DcP5] (H-[dC]LQLQAEER[dC]-OH; disulfide 1-10; N-terminus and C-terminus assumed)
- toxicity toward heart, liver, spleen, lung, and kidney (H&E morphology) [1]: remained normal
- time before blood concentration dropped below half C max [2]: 7 h
- concentration in peripheral blood relative to P5 ([2]; 0.5 hour after administration, biotin quantitation kit (biotin-peptide)): twice
- phosphorylation of FGFR2, AKT, and ERK1/2 [3]: reduced
- tumor growth in xenograft (DU145 xenograft): significantly decreased the tumor size in dose‐dependent manner
- growth-inhibition rate relative to P5 (DU145 cells [4]): stronger inhibition than P5
- colony number versus control group (DU145 cells [5]; 500 cells/well, crystal violet): significantly less than the control group
- less colonies than cells exposed to P5 (DU145 cells [5]; P < .05): 20%
- body weight versus other groups incl. blank [6]: little difference in body weight
- growth inhibitory effect in FGFR2 knockdown cells compared to wild type cells [7]: significantly decreased
- fluorescent intensity of treated cells relative to P5 (FGFR2 on DU145 cells; IFA): significantly stronger
- binding to FGFR2 on cells (IFA) (FGFR2 on DU145 cells; biotin-labeled peptide): bind to FGFR2

Compound: LQLQAEER [P5]
- toxicity toward heart, liver, spleen, lung, and kidney (H&E morphology) [1]: negligible toxicity
- time before blood concentration dropped below half C max [2]: 5 h
- Kd (FGFR2): 490 nM
- body weight versus other groups incl. blank [6]: little difference in body weight
- toxicity toward normal cells (L02 normal liver cells): negligible toxicity
